Experimental data from ChEMBL document CHEMBL1150965, “Aculeoside B, a new bisdesmosidic spirostanol saponin from the underground parts of Ruscus aculeatus” (J Nat Prod, 1998).
≈ marks a conversion by molar mass, not a printed value.

Test system: HL-60
Experiment: Cytostatic activity against human HL60 cells after 72 hrs by MTT assay
Assay type: functional, cell-based
Settings: HL-60, 72 h

IC50: 0.48 µg/mL (≈ 0.476 µM)
SMILES: C=C1CO[C@@]2(O[C@H]3C[C@H]4[C@@H]5CC=C6C[C@@H](O)C[C@@H](O[C@@H]7OC[C@H](O)[C@H](O)[C@H]7O[C@@H]7O[C@@H](C)[C@H](OC(C)=O)[C@@H](OC(C)=O)[C@H]7OC(C)=O)[C@]6(C)[C@H]5CC[C@]4(C)[C@H]3[C@@H]2C)[C@@H](O)[C@H]1O[C@@H]1O[C@H](C)C(=O)[C@H](O)[C@H]1O [ACULEOSIDE A]
